Assay results from patent US12139520B2 (priority 2020, dated 2024).
pEC50: −log10 of the molar value. Bridge positions count the residues as written; N and C are the ends. Square brackets hold non-standard residues; d marks the D form. Peptide text beside a SMILES is read from it. Hyp = O=C(O)[C@@H]1C[C@@H](O)CN1

Experiments:
[1] = target: T1, hAMY3 receptor (Homo sapiens, UniProt O60896+P30988); assay: cAMP assay for in vitro receptor activation, hAMY3-R; format: cell-based; conditions: cAMP assay, hAMY3 receptor; read-out: hAMY3R EC50
T1 sequence (P30988 25-474): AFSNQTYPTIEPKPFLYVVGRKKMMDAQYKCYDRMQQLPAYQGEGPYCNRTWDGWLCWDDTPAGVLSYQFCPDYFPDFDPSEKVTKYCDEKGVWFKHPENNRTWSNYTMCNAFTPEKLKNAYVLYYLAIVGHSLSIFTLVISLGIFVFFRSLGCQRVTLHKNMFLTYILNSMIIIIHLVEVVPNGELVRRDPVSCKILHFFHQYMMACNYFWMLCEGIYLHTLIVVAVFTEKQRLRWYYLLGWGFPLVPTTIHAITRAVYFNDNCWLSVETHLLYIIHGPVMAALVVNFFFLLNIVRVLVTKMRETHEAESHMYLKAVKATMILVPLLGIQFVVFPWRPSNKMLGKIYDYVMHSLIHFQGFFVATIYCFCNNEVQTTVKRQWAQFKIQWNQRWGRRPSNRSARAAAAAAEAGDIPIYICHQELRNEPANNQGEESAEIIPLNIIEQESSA
T1 sequence (O60896 24-148 partner): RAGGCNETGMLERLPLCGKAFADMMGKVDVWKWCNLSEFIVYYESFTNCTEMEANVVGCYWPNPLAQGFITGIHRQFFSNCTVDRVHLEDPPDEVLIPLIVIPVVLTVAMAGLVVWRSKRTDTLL
How it was run: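 Receptor activation was measured as cAMP accumulation in a monoclonal cell line stably overexpressing hAMY3. Stimulation with graded doses lasted 30 min at room temperature in the presence of 0.5 mM IBMX, with human amylin as positive control.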

[2] = Physical stability of peptide analogues (Thioflavin T fibrillation); format: physicochemical; conditions: maximum ThT signal normalized between hAMY maximum and buffer background; 40° C., shaking, four days; pH 7 per table title
How it was run: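 Samples are stressed at 40 °C for four days, being shaken at 700 rpm before each 10-min fluorescence reading of 4 μM Thioflavin T. Buffers were pH 4 acetate or pH 7 phosphate. Reported values are smoothed maximum ThT signals as a percentage of the hAMY-to-background range.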

With `CC[C@H](C)[C@H](NC(=O)[C@H](CC(N)=O)NC(=O)[C@H](CO)NC(=O)[C@H](CCCNC(=N)N)NC(=O)[C@@H]1CCCN1C(=O)[C@H](C)NC(=O)[C@@H](NC(=O)[C@H](CC(N)=O)NC(=O)[C@H](CC(=O)O)NC(=O)[C@H](CCCCN)NC(=O)[C@H](CC(=O)O)NC(=O)[C@H](CCCCN)NC(=O)[C@H](CC(=O)O)NC(=O)[C@@H](NC(=O)[C@H](Cc1ccccc1)NC(=O)[C@H](CCC(N)=O)NC(=O)[C@H](Cc1ccc(O)cc1)NC(=O)[C@@H](NC(=O)[C@H](CCC(N)=O)NC(=O)[C@H](Cc1c[nH]cn1)NC(=O)[C@H](C)NC(=O)[C@H](CC(C)C)NC(=O)[C@H](Cc1c[nH]c2ccccc12)NC(=O)[C@H](CCC(N)=O)NC(=O)[C@@H](NC(=O)[C@@H](NC(=O)[C@@H]1CSSC[C@H](NC(=O)CN)C(=O)N[C@@H](CCCNC(=N)N)C(=O)N[C@@H]([C@@H](C)O)C(=O)NCC(=O)N[C@@H]([C@@H](C)O)C(=O)N1)[C@@H](C)O)C(C)C)[C@@H](C)CC)[C@@H](C)O)C(C)C)C(=O)NCC(=O)N1CCC[C@H]1C(=O)N[C@@H](CC(N)=O)C(=O)NCC(=O)N1C[C@H](O)C[C@H]1C(N)=O` [compound 352] (H-GCRTGTCTVQWLAHQIYQFTDKDKDNVAPRSNIGPNG[Hyp]-NH2; disulfide 2-7; N-terminus assumed) the pEC50 [1] was 10.40 and the “Max ThT signal (%)” value [2] was 25.800%.
With `CC[C@H](C)[C@H](NC(=O)[C@H](CCC(N)=O)NC(=O)[C@H](Cc1c[nH]cn1)NC(=O)[C@H](C)NC(=O)[C@H](CC(C)C)NC(=O)[C@H](Cc1c[nH]c2ccccc12)NC(=O)[C@H](CCC(N)=O)NC(=O)[C@@H](NC(=O)[C@@H](NC(=O)[C@@H]1CSSC[C@H](NC(=O)CN)C(=O)N[C@@H](CCCNC(=N)N)C(=O)N[C@@H](Cc2ccccc2)C(=O)NCC(=O)N[C@@H]([C@@H](C)O)C(=O)N1)[C@@H](C)O)C(C)C)C(=O)N[C@@H](Cc1ccc(O)cc1)C(=O)N[C@@H](CCC(N)=O)C(=O)N[C@@H](Cc1ccccc1)C(=O)N[C@H](C(=O)N[C@@H](CC(=O)O)C(=O)N[C@@H](CCCCN)C(=O)N[C@@H](CC(=O)O)C(=O)N[C@@H](CCCCN)C(=O)N[C@@H](CC(=O)O)C(=O)N[C@@H](CC(N)=O)C(=O)N[C@H](C(=O)N[C@@H](C)C(=O)N1CCC[C@H]1C(=O)N[C@@H](CCCNC(=N)N)C(=O)N[C@@H](CO)C(=O)N[C@@H](CCCCN)C(=O)N[C@H](C(=O)NCC(=O)N1CCC[C@H]1C(=O)N[C@@H](CCC(N)=O)C(=O)NCC(=O)N1C[C@H](O)C[C@H]1C(N)=O)C(C)C)C(C)C)[C@@H](C)O` [compound 353] (H-GCRFGTCTVQWLAHQIYQFTDKDKDNVAPRSKVGPQG[Hyp]-NH2; disulfide 2-7; N-terminus assumed) the pEC50 [1] was 10.57 and the “Max ThT signal (%)” value [2] was 30.300%.
In the case of `CC[C@H](C)[C@H](NC(=O)[C@H](CCC(N)=O)NC(=O)[C@H](Cc1c[nH]cn1)NC(=O)[C@H](C)NC(=O)[C@H](CC(C)C)NC(=O)[C@H](CCCNC(=N)N)NC(=O)[C@H](CCC(N)=O)NC(=O)[C@@H](NC(=O)[C@@H](NC(=O)[C@@H]1CSSC[C@H](NC(=O)CN)C(=O)N[C@@H](CCCNC(=N)N)C(=O)N[C@@H](Cc2ccccc2)C(=O)NCC(=O)N[C@@H]([C@@H](C)O)C(=O)N1)[C@@H](C)O)C(C)C)C(=O)N[C@@H](Cc1ccc(O)cc1)C(=O)N[C@@H](CCC(N)=O)C(=O)N[C@@H](Cc1ccccc1)C(=O)N[C@H](C(=O)N[C@@H](CC(=O)O)C(=O)N[C@@H](CCCCN)C(=O)N[C@@H](CC(=O)O)C(=O)N[C@@H](CCCCN)C(=O)N[C@@H](CC(=O)O)C(=O)N[C@@H](CC(N)=O)C(=O)N[C@H](C(=O)N[C@@H](C)C(=O)N1CCC[C@H]1C(=O)N[C@@H](CCCNC(=N)N)C(=O)N[C@H](C(=O)N[C@@H](CC(N)=O)C(=O)N[C@H](C(=O)NCC(=O)N1CCC[C@H]1C(=O)N[C@@H](CCC(N)=O)C(=O)NCC(=O)N[C@@H](Cc1ccc(O)cc1)C(N)=O)C(C)C)[C@@H](C)O)C(C)C)[C@@H](C)O` [compound 362] (H-GCRFGTCTVQRLAHQIYQFTDKDKDNVAPRTNVGPQGY-NH2; disulfide 2-7), the pEC50 [1] was 11.15 and the “Max ThT signal (%)” value [2] was 8.900%.
With `CC[C@H](C)[C@H](NC(=O)[C@H](CCC(N)=O)NC(=O)[C@H](Cc1c[nH]cn1)NC(=O)[C@H](C)NC(=O)[C@H](CC(C)C)NC(=O)[C@H](CCCNC(=N)N)NC(=O)[C@H](CCC(N)=O)NC(=O)[C@@H](NC(=O)[C@@H](NC(=O)[C@@H]1CSSC[C@H](NC(=O)CN)C(=O)N[C@@H](CCCNC(=N)N)C(=O)N[C@@H](Cc2ccccc2)C(=O)NCC(=O)N[C@@H]([C@@H](C)O)C(=O)N1)[C@@H](C)O)C(C)C)C(=O)N[C@@H](Cc1ccc(O)cc1)C(=O)N[C@@H](CCC(N)=O)C(=O)N[C@@H](Cc1ccccc1)C(=O)N[C@H](C(=O)N[C@@H](CC(=O)O)C(=O)N[C@@H](CCCCN)C(=O)N[C@@H](CC(=O)O)C(=O)N[C@@H](CCCCN)C(=O)N[C@@H](CC(=O)O)C(=O)N[C@@H](CC(N)=O)C(=O)N[C@H](C(=O)N[C@@H](C)C(=O)N1CCC[C@H]1C(=O)N[C@@H](CCCNC(=N)N)C(=O)N[C@H](C(=O)N[C@@H](CC(N)=O)C(=O)N[C@H](C(=O)N[C@@H](CO)C(=O)N1CCC[C@H]1C(=O)N[C@@H](CC(N)=O)C(=O)NCC(=O)N[C@@H](Cc1ccc(O)cc1)C(N)=O)[C@@H](C)CC)[C@@H](C)O)C(C)C)[C@@H](C)O` [compound 366] (H-GCRFGTCTVQRLAHQIYQFTDKDKDNVAPRTNISPNGY-NH2; disulfide 2-7; N-terminus assumed) the pEC50 [1] was 10.89 and the “Max ThT signal (%)” value [2] was 3.300%.
For `CC[C@H](C)[C@H](NC(=O)[C@H](CCC(N)=O)NC(=O)[C@H](Cc1c[nH]cn1)NC(=O)[C@H](C)NC(=O)[C@H](CC(C)C)NC(=O)[C@H](CCCNC(=N)N)NC(=O)[C@H](CCC(N)=O)NC(=O)[C@@H](NC(=O)[C@@H](NC(=O)[C@@H]1CSSC[C@H](NC(=O)CN)C(=O)N[C@@H](CCCNC(=N)N)C(=O)N[C@@H](Cc2ccccc2)C(=O)NCC(=O)N[C@@H]([C@@H](C)O)C(=O)N1)[C@@H](C)O)C(C)C)C(=O)N[C@@H](Cc1ccc(O)cc1)C(=O)N[C@@H](CCC(N)=O)C(=O)N[C@@H](Cc1ccccc1)C(=O)N[C@H](C(=O)N[C@@H](CC(=O)O)C(=O)N[C@@H](CCCCN)C(=O)N[C@@H](CC(=O)O)C(=O)N[C@@H](CCCCN)C(=O)N[C@@H](CC(=O)O)C(=O)N[C@@H](CC(N)=O)C(=O)N[C@H](C(=O)N[C@@H](C)C(=O)N1CCC[C@H]1C(=O)N[C@@H](CCCNC(=N)N)C(=O)N[C@@H](CO)C(=O)N[C@@H](CC(N)=O)C(=O)N[C@H](C(=O)NCC(=O)N1CCC[C@H]1C(=O)N[C@@H](CC(N)=O)C(=O)NCC(=O)N[C@@H](Cc1ccc(O)cc1)C(N)=O)C(C)C)C(C)C)[C@@H](C)O` [compound 373] (H-GCRFGTCTVQRLAHQIYQFTDKDKDNVAPRSNVGPNGY-NH2; disulfide 2-7; N-terminus assumed), the pEC50 [1] was 10.70 and the “Max ThT signal (%)” value [2] was 18.000%.
